Data reported in patent US20230399312A1, “SUBSTITUTED PYRIMIDINES AND METHODS OF USE” (THERAVANCE BIOPHARMA R&D IP, LLC, priority 2020, published 2023).

Experiments:
[1] = tested on: TGF-β-stimulated SMAD3 phosphorylation in BEAS-2B cells; assay: Cellular ALK5 potency assay, inhibition of TGF-β stimulated pSMAD3 formation in BEAS-2B cells; type: cell-based; details: Homo sapiens, pSMAD3, TGF-β 10 ng/mL, read-out: BEAS2B pIC50 (converted)
How it was run: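 Human lung epithelial BEAS-2B cells were pre-treated with compound for 1 h at 37 °C, then stimulated with TGF-β (final 10 ng/mL) for 30 min before lysis. pSMAD3 was quantified by AlphaLISA and pIC50 derived from dose-dependent signal change versus TGF-β-stimulated untreated cells.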

[2] = target: T1, recombinant human ALK5 (TGF-βR1) protein (Homo sapiens, UniProt P36897); assay: Biochemical ALK5 (TGF-βR1) assay to measure pKi (LANCE Ultra ULight kinase assay); details: apparent pKi, converted from pIC50 by Cheng-Prusoff
T1 construct: purchased Life Technologies PR9075A
T1 sequence (P36897 34-503): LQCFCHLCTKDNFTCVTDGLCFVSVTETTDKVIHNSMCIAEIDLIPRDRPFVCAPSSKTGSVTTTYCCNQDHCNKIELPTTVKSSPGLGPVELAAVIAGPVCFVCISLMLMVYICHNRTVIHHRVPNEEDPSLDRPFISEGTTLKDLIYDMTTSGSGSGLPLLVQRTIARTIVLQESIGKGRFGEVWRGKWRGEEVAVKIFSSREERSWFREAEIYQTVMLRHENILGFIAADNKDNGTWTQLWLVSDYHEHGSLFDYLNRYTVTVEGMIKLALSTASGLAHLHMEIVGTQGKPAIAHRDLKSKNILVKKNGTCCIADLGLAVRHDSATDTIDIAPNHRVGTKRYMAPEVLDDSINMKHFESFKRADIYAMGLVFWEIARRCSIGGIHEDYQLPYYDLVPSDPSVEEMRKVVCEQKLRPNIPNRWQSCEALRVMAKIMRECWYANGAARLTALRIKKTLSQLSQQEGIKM
How it was run: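 Read-out was LANCE Ultra TR-FRET with a europium anti-phospho-Topo IIα Thr1342 antibody after EDTA quench. Kinase reaction ran 60 min at 37 °C with ATP added from a 125 μM 5× stock, after 60 min compound–enzyme equilibration at room temperature. Values are pKi from Cheng-Prusoff conversion of fitted pIC50.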

SMILES | IC50 [1] [nM] | Ki [2] [nM]
Cc1cccc(-c2nc(Nc3ccnc(Nc4ccc(NC(=O)CC5CNC5)cc4)n3)c3cccn3n2)n1 [Compound 1029, 2-(azetidin-3-yl)-N-[4-[[4-[[2-(6-methyl-2-pyridyl)pyrrolo[2,1-f][1,2,4]triazin-4-yl]amino]pyrimidin-2-yl]amino]phenyl]acetamide] | 25.1 to 158 | 0.0398 to 0.316
Cc1cccc(-c2nc(Nc3ccnc(Nc4ccc(NC(=O)[C@H]5C[C@@H](N)C5)cc4)n3)c3cccn3n2)n1 [Compound 1030, 3-amino-N-[4-[[4-[[2-(6-methyl-2-pyridyl)pyrrolo[2,1-f][1,2,4]triazin-4-yl]amino]pyrimidin-2-yl]amino]phenyl] cyclobutanecarboxamide] | 25.1 to 158 | 0.0398 to 0.316
Cc1cccc(-c2nc(Nc3ccnc(Nc4ccc(NC(=O)C5(CO)CNC5)cc4)n3)c3cccn3n2)n1 [Compound 1031, 3-(hydroxymethyl)-N-[4-[[4-[[2-(6-methyl-2-pyridyl)pyrrolo[2,1-f][1,2,4]triazin-4-yl]amino]pyrimidin-2-yl]amino]phenyl]azetidine-3-carboxamide] | 25.1 to 158 | 0.0398 to 0.316
Cc1cccc(-c2nc(Nc3ccnc(Nc4ccc(NC(=O)C5CCCNC5)cc4)n3)c3cccn3n2)n1 (stereo not shown) [Compound 1032, N-[4-[[4-[[2-(6-methyl-2-pyridyl)pyrrolo[2,1-f][1,2,4]triazin-4-yl]amino]pyrimidin-2-yl]amino]phenyl]piperidine-3-carboxamide] | 25.1 to 158 | 0.0398 to 0.316
Cc1cccc(-c2nc(Nc3ccnc(Nc4ccc(C(=O)N5CCC6(CC5)CNC6)cc4)n3)c3cccn3n2)n1 [Compound 1033, 2,7-diazaspiro[3.5]nonan-7-yl-[4-[[4-[[2-(6-methyl-2-pyridyl)pyrrolo[2,1-f][1,2,4]triazin-4-yl]amino]pyrimidin-2-yl]amino]phenyl]methanone] | 25.1 to 158 | 0.0398 to 0.316
Cc1cccc(-c2nc(Nc3ccnc(Nc4ccc(C(=O)NC5CNC5)cc4)n3)c3cccn3n2)n1 [Compound 1034, N-(azetidin-3-yl)-4-[[4-[[2-(6-methyl-2-pyridyl)pyrrolo[2,1-f][1,2,4]triazin-4-yl]amino]pyrimidin-2-yl]amino]benzamide] | 25.1 to 158 | 0.0398 to 0.316
Cc1cccc(-c2nc(Nc3ccnc(Nc4ccc(C(=O)NCC5CNC5)cc4)n3)c3cccn3n2)n1 [Compound 1035, N-(azetidin-3-ylmethyl)-4-[[4-[[2-(6-methyl-2-pyridyl)pyrrolo[2,1-f][1,2,4]triazin-4-yl]amino]pyrimidin-2-yl]amino]benzamide] | 25.1 to 158 | 0.0398 to 0.316
Cc1cccc(-c2nc(Nc3ccnc(Nc4ccc(C(=O)NC5CCNC5)cc4)n3)c3cccn3n2)n1 (stereo not shown) [Compound 1036, 4-[[4-[[2-(6-methyl-2-pyridyl)pyrrolo[2,1-f][1,2,4]triazin-4-yl]amino]pyrimidin-2-yl]amino]-N-pyrrolidin-3-yl-benzamide] | 25.1 to 158 | 0.0398 to 0.316
Cc1cccc(-c2nc(Nc3ccnc(Nc4ccc(C(=O)NC5CCNCC5)cc4)n3)c3cccn3n2)n1 [Compound 1037, 4-[[4-[[2-(6-methyl-2-pyridyl)pyrrolo[2,1-f][1,2,4]triazin-4-yl]amino]pyrimidin-2-yl]amino]-N-(4-piperidyl)benzamide] | 25.1 to 158 | 0.0398 to 0.316
Cc1cccc(-c2nc(Nc3ccnc(Nc4ccc(C(=O)N5CCNCC5)cc4)n3)c3cccn3n2)n1 [Compound 1038, [4-[[4-[[2-(6-methyl-2-pyridyl)pyrrolo[2,1-f][1,2,4]triazin-4-yl]amino]pyrimidin-2-yl]amino]phenyl]-piperazin-1-yl-methanone] | 25.1 to 158 | 0.0398 to 0.316
Cc1cccc(-c2nc(Nc3ccnc(Nc4ccc(C(=O)OCC5CNC5)cc4)n3)c3cccn3n2)n1 [Compound 1039, azetidin-3-ylmethyl 4-[[4-[[2-(6-methyl-2-pyridyl)pyrrolo[2,1-f][1,2,4]triazin-4-yl]amino]pyrimidin-2-yl]amino]benzoate] | 25.1 to 158 | 0.0398 to 0.316
